In patent publication US20240261291A1, “Ophthalmic Compositions and/or Methods for Presbyopia, Mydriasis and/or Ocular Discomfort Management” (Brien Holden Vision Institute Limited, priority 2021, published 2024):

How the values were obtained:
[1] = test system: pupillary diameter of the eye; assay: Pupillary diameter over 2 hours after a single eye drop of caffeine 2 wt. % in water, 5 individuals (Grand Seiko autorefractor); assay type: in vivo, human; conditions: for average decrease in pupillary diameter compared to baseline: 5 individuals; for maximal decrease in pupillary diameter: largest among individuals
Protocol: FIG. 1 is a schematic of the pupil diameter of eyes prescribed with caffeine 2% over time.
FIG. 1 illustrates the baseline pupillary diameter and the pupillary diameter over 2 hours in a group of 5 individuals (3 males and 2 females, age ranging from 31 to 45 yrs) prescribed with an ophthalmic composition comprising caffeine. A topical ophthalmic composition comprising caffeine 2 wt. % in water was instilled (as a single eye drop in the range of from 0.025 mL to 0.075 ml, such as an average single drop size of about 0.05 mL) in one eye of each of the individuals. Pupillary diameter at baseline and at subsequent time points was captured using a Grand Seiko autorefractor for 11 secs and data summarized. The room illumination was standardized at 150 to 200 lux. As observed from FIG. 1, there was a decrease in pupillary diameter post instillation. On average, compared to baseline, the decrease in pupillary diameter at 30 mins and 1 hr post instillation was 0.3 mm and was approximately 0.2 mm at 2 hrs. There was some variation between the various individuals, however the maximal […] in pupillary diameter at 30 mins was 0.4 mm, was approximately 0.8 mm at 1 hr and was approximately 0.6 mm at 2 hrs. Such an ophthalmic composition, as disclosed herein, can be used according to the methods provided herein to reduce the pupillary diameter of a treated eye of a subject and be effective in treating or managing symptoms related to presbyopia and/or mydriasis and/or eyes with disorders requiring light modulation such as one or more of vision disturbances.

[2] = test system: pupillary diameter of the eye; assay: Reversal of Tropicamide 1% mydriasis by caffeine 2.0 w/v % in saline, left eye only, person (Grand Seiko autorefractor); assay type: in vivo, human; conditions: for Pupillary diameter Left eye: given 50 mins after Tropicamide 1%
Protocol: FIG. 4 illustrates that difference in pupil diameter in the right and left eyes of an individual, wherein Tropicamide 1% was instilled in both eyes and approximately 50 minutes later, an ophthalmic composition comprising Caffeine at 2 w/v. % was instilled in the left eye only.
The following Table 3 illustrates the pupil diameter of a person. An aqueous solution of 1% Tropicamide was instilled in both eyes. Pupillary diameter was measured over a 15 second interval with a Grand Seiko autorefractor with the individual fixating at an object positioned 1 meter away. Pupillary diameter was dynamically sampled at multiple time points over the 15 second interval. Pupillary diameters for both eyes were measured prior to instillation (baseline), soon after instillation of 1% Tropicamide and then 20 minutes and 50 minutes post instillation. […] At this time point, a single drop (0.05 mL) of 2.0 w/v % Caffeine in Saline (0.9 wt. % NaCl) (composition 1) was instilled in the left eye only. The individual was monitored 30 minutes, 60 minutes, 2 hrs, 4 hrs and 6.5 hrs from instillation of Caffeine.
FIG. 4 illustrates the difference in pupillary diameter between the right and left eyes 4 hrs from the instillation of Tropicamide 1% in both eyes and […] from instillation of Caffeine 2 w/v % in the left eye.

SMILES: Cn1c(=O)c2c(ncn2C)n(C)c1=O [Caffeine, caffeine (1,7 methylxanthine)]
- average decrease in pupillary diameter compared to baseline ([1]; 30 mins post instillation, 150 to 200 lux): 0.3 mm
- maximal decrease in pupillary diameter ([1]; 30 mins): 0.4 mm
- average decrease in pupillary diameter compared to baseline ([1]; 1 hr post instillation): 0.3 mm
- maximal decrease in pupillary diameter ([1]; 1 hr): approximately 0.8 mm
- average decrease in pupillary diameter compared to baseline ([1]; 2 hrs post instillation): approximately 0.2 mm
- maximal decrease in pupillary diameter ([1]; 2 hrs): approximately 0.6 mm
- Difference in pupillary diameter (Right − Left) ([2]; 30 mins post instillation of Caffeine 2 w/v % in left eye, both eyes Tropicamide 1%): 0.5 mm
- Difference in pupillary diameter (Right − Left) ([2]; 60 mins post instillation of Caffeine 2 w/v % in left eye, both eyes Tropicamide 1%): 0.7 mm
- Difference in pupillary diameter (Right − Left) ([2]; 2 hrs post instillation of Caffeine 2 w/v % in left eye, both eyes Tropicamide 1%): 0.8 mm
- difference between the pupils ([2]; at 1 and 2 hours following instillation of Caffeine in the left eye, both eyes Tropicamide 1%): approximately 0.8 mm
- left eye pupil diameter ([2]; left eye (Tropicamide 1% then Caffeine 2 w/v %), 6.5 hrs from the baseline visit, returned to normal): 3.8 mm
- Pupillary diameter Left eye ([2]; left eye, 30 mins post instillation of Caffeine 2 w/v %): 6.8 mm
- Pupillary diameter Left eye ([2]; left eye, 60 mins post instillation of Caffeine 2 w/v %): 6.5 mm
- Pupillary diameter Left eye ([2]; left eye, 2 hrs post instillation of Caffeine 2 w/v %): 6.3 mm
- left eye pupillary diameter ([2]; left eye, 3 hrs from instillation of Caffeine 2 w/v %, 4 hrs from Tropicamide 1% (FIG. 4)): 5.9 mm
